Data from patent US9518018B2, “3-alkoxy, thioalkyl and amino-4-amino-6-(substituted)picolinates and their use as herbicides” (Dow AgroSciences LLC, priority 2011, dated 2016).
Values belong to the compound of their own block, whether it stands above or below them.

Experiments:
[1] = tested on: ABUTH: velvetleaf (Abutilon theophrasti); experiment: Post-Emergent Test I herbicidal activity; assay type: in vivo; details: Abutilon theophrasti, post-emergence, 336 h, read-out: Visual Growth Reduction (%)-14 Days after Application ABUTH; for pest or weed control at 140 g/ha: Table 3, 140 g ai/ha; for pest or weed control at 70 g/ha: Table 3, 70 g ai/ha
Protocol: (§1) Seeds or nutlets of the desired test plant species were planted in Sun Gro Metro-Mix® 360 planting mixture, which typically has a pH of 6.0 to 6.8 and an organic matter content of about 30 percent, in plastic pots with a surface area of 64 square centimeters. When required to ensure good germination and healthy plants, a fungicide treatment and/or other chemical or physical treatment was applied. The plants were grown for 7-21 d in a greenhouse with an approximate 15 h photoperiod which was maintained at about 23-29° C. during the day and 22-28° C. during the night. Nutrients and water were added on a regular basis and supplemental lighting was provided with overhead metal halide 1000-Watt lamps as necessary. The plants were employed for testing when they reached the first or second true leaf stage.
(§2) A weighed amount, determined by the highest rate to be tested, of each test compound was placed in a 25 mL glass vial and was dissolved in 4 mL of a 97:3 v/v mixture of acetone and DMSO to obtain concentrated stock solutions. […] The concentrated stock solutions obtained were diluted with 20 mL of an aqueous mixture containing acetone, water, isopropyl alcohol, DMSO, Atplus 411F crop oil concentrate, and Triton® X-155 surfactant in a 48.5:39:10:1.5:1.0:0.02 v/v ratio to obtain spray solutions containing the highest application rates. Additional application rates were obtained by serial dilution of 12 mL of the high rate solution into a solution containing 2 mL of 97:3 v/v mixture of acetone and DMSO and 10 mL of an aqueous mixture containing acetone, water, isopropyl alcohol, DMSO, Atplus 411F crop oil concentrate, and Triton X-155 surfactant in a 48.5:39:10:1.5:1.0:0.02 v/v ratio to obtain ½×, ¼×, ⅛× and 1/16× rates of the high rate. Compound requirements are based upon a 12 mL application volume at a rate of 187 liters per hectare (L/ha). Formulated compounds were applied to the plant material with an overhead Mandel track sprayer equipped with 8002E nozzles calibrated to deliver 187 L/ha over an application area of 0.503 square meters at a spray height of 18 inches (43 cm) above the average plant canopy height. Control plants were sprayed in the same manner with the solvent blank.
(§3) The treated plants and control plants were placed in a greenhouse as described above and watered by subirrigation to prevent wash-off of the test compounds. After 14 d, the condition of the test plants as compared with that of the untreated plants was determined visually and scored on a scale of 0 to 100 percent where 0 corresponds to no injury and 100 corresponds to complete kill.
(§4) By applying the well-accepted probit analysis as described by J. Berkson in Journal of the […], 48, 565 (1953) and by D. Finney in “Probit Analysis” Cambridge University Press (1952), the above data can be used to calculate GR20, GR50 and GR80 values, which are defined as growth reduction factors that correspond to the effective dose of herbicide required to kill or control 20 percent, 50 percent or 80 percent, respectively, of a target plant.

[2] = tested on: CHEAL: lambsquarters (Chenopodium album); experiment: Post-Emergent Test I herbicidal activity; assay type: in vivo; details: Chenopodium album, post-emergence, 336 h, read-out: Visual Growth Reduction (%)-14 Days after Application CHEAL; for pest or weed control at 140 g/ha: Table 3, 140 g ai/ha; for pest or weed control at 70 g/ha: Table 3, 70 g ai/ha
Protocol: as §1, §2, §3, §4

[3] = tested on: CYPES: yellow nutsedge (Cyperus esculentus); experiment: Post-Emergent Test I herbicidal activity; assay type: in vivo; details: post-emergence, 336 h, read-out: Visual Growth Reduction (%)-14 Days after Application CYPES; for pest or weed control at 140 g/ha: Table 3, 140 g ai/ha; for pest or weed control at 70 g/ha: Table 3, 70 g ai/ha
Protocol: as §1, §2, §3, §4

[4] = tested on: ECHCG: barnyardgrass (Echinochloa crus-galli); experiment: Post-Emergent Test I herbicidal activity; assay type: in vivo; details: post-emergence, 336 h, read-out: Visual Growth Reduction (%)-14 Days after Application ECHCG; for pest or weed control at 140 g/ha: Table 3, 140 g ai/ha; for pest or weed control at 70 g/ha: Table 3, 70 g ai/ha
Protocol: as §1, §2, §3, §4

[5] = tested on: EPHHL: wild poinsettia (Euphorbia heterophylla); experiment: Post-Emergent Test I herbicidal activity; assay type: in vivo; details: post-emergence, 336 h, read-out: Visual Growth Reduction (%)-14 Days after Application EPHHL; for pest or weed control at 140 g/ha: Table 3, 140 g ai/ha; for pest or weed control at 70 g/ha: Table 3, 70 g ai/ha
Protocol: as §1, §2, §3, §4

[6] = tested on: ORYSA: rice (Oryza sativa); experiment: Post-Emergent Test I herbicidal activity; assay type: in vivo; details: post-emergence, 336 h, read-out: Visual Growth Reduction (%)-14 Days after Application ORYSA; for pest or weed control at 140 g/ha: Table 3, 140 g ai/ha; for pest or weed control at 70 g/ha: Table 3, 70 g ai/ha
Protocol: as §1, §2, §3, §4

ZEAMX: corn (Zea mays) = experiment: Post-Emergent Test I herbicidal activity; assay type: in vivo; details: Zea mays, post-emergence, 336 h, read-out: Visual Growth Reduction (%)-14 Days after Application ZEAMX; for pest or weed control at 140 g/ha: Table 3, 140 g ai/ha; for pest or weed control at 70 g/ha: Table 3, 70 g ai/ha
Protocol: as §1, §2, §3, §4

melting point: 137 to 139 °C
Compound: COC(=O)c1nc(-c2cc(F)c([Si](C)(C)C)cc2F)c(F)c(N)c1OC

melting point: 123 to 125 °C
Compound: COC(=O)c1nc(-c2ccc([Si](C)(C)C)c(F)c2F)c(F)c(N)c1OC

Compound: COc1c(N)cc(C(C)F)nc1C(=O)O (stereo not drawn) [Compound 84, 4-amino-6-(1-fluoroethyl)-3-methoxypicolinic acid]
pest or weed control at 140 g/ha [1]: 10%
pest or weed control at 140 g/ha [2]: 30%
pest or weed control at 140 g/ha [3]: 0%
pest or weed control at 140 g/ha [4]: 0%
pest or weed control at 140 g/ha [5]: 0%
pest or weed control at 140 g/ha [6]: 0%
pest or weed control at 140 g/ha (ZEAMX: corn (Zea mays)): 0%

Compound: COC(=O)c1nc(-c2ccc(I)c(F)c2F)c(F)c(N)c1OC [Compound 24]
pest or weed control at 140 g/ha [1]: 60%
pest or weed control at 140 g/ha [2]: 65%
pest or weed control at 140 g/ha [3]: 100%
pest or weed control at 140 g/ha [4]: 50%
pest or weed control at 140 g/ha [5]: 100%
pest or weed control at 140 g/ha [6]: 0%
pest or weed control at 140 g/ha (ZEAMX: corn (Zea mays)): 75%

Compound: COC(=O)c1nc(-c2ccc(I)cc2)c(F)c(N)c1OC [Compound 23, methyl 4-amino-5-fluoro-6-(4-iodophenyl)-3-methoxypicolinate]
pest or weed control at 140 g/ha [1]: 70%
pest or weed control at 140 g/ha [2]: 100%
pest or weed control at 140 g/ha [3]: 100%
pest or weed control at 140 g/ha [4]: 80%
pest or weed control at 140 g/ha [5]: 100%
pest or weed control at 140 g/ha [6]: 0%
pest or weed control at 140 g/ha (ZEAMX: corn (Zea mays)): 70%

melting point: 127 to 129 °C
Compound: COC(=O)c1nc(-c2ccc([Si](C)(C)C)cc2F)c(F)c(N)c1OC

Compound: COc1c(C(=O)O)nc(-c2ccc(Cl)c(C(C)F)c2F)c(F)c1N (stereo not drawn) [Compound 65]
pest or weed control at 140 g/ha [1]: 100%
pest or weed control at 140 g/ha [2]: 100%
pest or weed control at 140 g/ha [3]: 100%
pest or weed control at 140 g/ha [4]: 65%
pest or weed control at 140 g/ha [5]: 100%
pest or weed control at 140 g/ha [6]: 0%
pest or weed control at 140 g/ha (ZEAMX: corn (Zea mays)): 70%

Compound: COC(=O)c1nc(-c2ccc(Br)c(F)c2)c(F)c(N)c1OC [Compound 21]
pest or weed control at 70 g/ha [1]: 85%
pest or weed control at 70 g/ha [2]: 100%
pest or weed control at 70 g/ha [3]: 70%
pest or weed control at 70 g/ha [4]: 50%
pest or weed control at 70 g/ha [5]: 100%
pest or weed control at 70 g/ha [6]: 0%
pest or weed control at 70 g/ha (ZEAMX: corn (Zea mays)): 50%

Compound: COC(=O)c1nc(-c2ccc(Cl)cc2)cc(N)c1OC [Compound 7, methyl 4-amino-6-(4-chlorophenyl)-3-methoxypicolinate]
pest or weed control at 140 g/ha [1]: 90%
pest or weed control at 140 g/ha [2]: 100%
pest or weed control at 140 g/ha [3]: 0%
pest or weed control at 140 g/ha [4]: 0%
pest or weed control at 140 g/ha [5]: 95%
pest or weed control at 140 g/ha [6]: 0%
pest or weed control at 140 g/ha (ZEAMX: corn (Zea mays)): 0%

Compound: COc1ccc(-c2nc(C(=O)O)c(OC)c(N)c2F)cn1 [Compound 78, 4-amino-3-fluoro-5,6′-dimethoxy-[2,3′-bipyridine]-6-carboxylic acid]
pest or weed control at 70 g/ha [1]: 80%
pest or weed control at 70 g/ha [2]: 97%
pest or weed control at 70 g/ha [3]: 80%
pest or weed control at 70 g/ha [4]: 85%
pest or weed control at 70 g/ha [5]: 80%
pest or weed control at 70 g/ha [6]: 50%
pest or weed control at 70 g/ha (ZEAMX: corn (Zea mays)): 80%

Compound: COC(=O)c1nc(-c2ccc(Br)c(F)c2F)c(F)c(N)c1OC [Compound 19, methyl 4-amino-6-(4-bromo-2,3-difluorophenyl)-5-fluoro-3-methoxypicolinate]
pest or weed control at 70 g/ha [1]: 85%
pest or weed control at 70 g/ha [2]: 100%
pest or weed control at 70 g/ha [3]: 90%
pest or weed control at 70 g/ha [4]: 75%
pest or weed control at 70 g/ha [5]: 100%
pest or weed control at 70 g/ha [6]: 0%
pest or weed control at 70 g/ha (ZEAMX: corn (Zea mays)): 70%

Compound: COc1c(C(=O)O)nc(-c2ccc(C3CC3)nc2)c(F)c1N [Compound 77, 4-amino-6′-cyclopropyl-3-fluoro-5-methoxy-[2,3′-bipyridine]-6-carboxylic acid]
pest or weed control at 140 g/ha [1]: 80%
pest or weed control at 140 g/ha [2]: 75%
pest or weed control at 140 g/ha [3]: 90%
pest or weed control at 140 g/ha [4]: 85%
pest or weed control at 140 g/ha [5]: 95%
pest or weed control at 140 g/ha [6]: 65%
pest or weed control at 140 g/ha (ZEAMX: corn (Zea mays)): 95%

Compound: COc1c(C(=O)O)nc(-c2ccc(Br)c(F)c2F)c(F)c1N [Compound 54]
pest or weed control at 70 g/ha [1]: 90%
pest or weed control at 70 g/ha [2]: 90%
pest or weed control at 70 g/ha [3]: 100%
pest or weed control at 70 g/ha [4]: 90%
pest or weed control at 70 g/ha [5]: 100%
pest or weed control at 70 g/ha [6]: 5%
pest or weed control at 70 g/ha (ZEAMX: corn (Zea mays)): 85%

melting point: 162 to 164 °C
Compound: COC(=O)c1nc(-c2ccc(Cl)c(OC)c2F)cc(N)c1OC(F)F [Compound 9]

Compound: COc1c(C(=O)O)nc(-c2ccc(Br)cc2F)c(F)c1N [Compound 61]
pest or weed control at 140 g/ha [1]: 80%
pest or weed control at 140 g/ha [2]: 100%
pest or weed control at 140 g/ha [3]: 100%
pest or weed control at 140 g/ha [4]: 95%
pest or weed control at 140 g/ha [5]: 100%
pest or weed control at 140 g/ha [6]: 10%
pest or weed control at 140 g/ha (ZEAMX: corn (Zea mays)): 75%

Compound: COc1c(C(=O)O)nc(-c2ccc(Cl)c(Cl)c2)c(F)c1N [Compound 79]
pest or weed control at 70 g/ha [1]: 80%
pest or weed control at 70 g/ha [2]: 100%
pest or weed control at 70 g/ha [3]: 90%
pest or weed control at 70 g/ha [4]: 70%
pest or weed control at 70 g/ha [5]: 95%
pest or weed control at 70 g/ha [6]: 15%
pest or weed control at 70 g/ha (ZEAMX: corn (Zea mays)): 80%

Compound: COC(=O)c1nc(-c2ccc(C#N)cc2)c(F)c(N)c1OC [Compound 41]
pest or weed control at 140 g/ha [1]: 80%
pest or weed control at 140 g/ha [2]: 100%
pest or weed control at 140 g/ha [3]: 100%
pest or weed control at 140 g/ha [4]: 0%
pest or weed control at 140 g/ha [5]: 100%
pest or weed control at 140 g/ha [6]: 0%
pest or weed control at 140 g/ha (ZEAMX: corn (Zea mays)): 70%

Compound: COC(=O)c1nc(Cl)c(F)c(N)c1OC [Compound 10, methyl 4-amino-6-chloro-5-fluoro-3-methoxypicolinate]
pest or weed control at 280 g/ha ([1]; Table 3, 280 g ai/ha): 100%
pest or weed control at 280 g/ha ([2]; Table 3, 280 g ai/ha): 100%
pest or weed control at 280 g/ha ([3]; Table 3, 280 g ai/ha): 0%
pest or weed control at 280 g/ha ([4]; Table 3, 280 g ai/ha): 0%
pest or weed control at 280 g/ha ([5]; Table 3, 280 g ai/ha): 100%
pest or weed control at 280 g/ha ([6]; Table 3, 280 g ai/ha): 0%
pest or weed control at 280 g/ha (ZEAMX: corn (Zea mays); Table 3, 280 g ai/ha): 25%
